Data on one compound can be found in patent US12383653B2, “Neutral multidomain peptide hydrogels and uses thereof” (William Marsh Rice University, priority 2018, dated 2025).

Molecules are shown by their SMILES. Entries after “also recorded” stand apart in the source; their conditions may differ. Where a SMILES comes first, the peptide text is derived from it. [ ]: non-standard residue; d: D form. Hyp = O=C(O)[C@@H]1C[C@@H](O)CN1

Series [1] is described as follows: In vivo host response, subcutaneous injection model. Also on record: species or system mice. The procedure:
In vivo compatibility studies. All experimental procedures were approved by the Rice University Institutional Animal Care and Use Committee (IACUC) and performed according to the Animal Welfare Act and NIH guidelines. Female C57BL/6 mice from 8 to 12 weeks were purchased from Charles River (Wilmington, MA). Mice were injected with 4 implants of 100 μL 1% by weight O5 hydrogel in the dorsal subcutaneous space using a 26-gauge needle. At days 3, 7, and 14 mice were euthanized, and implants were extracted, fixed with 10% neutral buffered formalin and processed into paraffin blocks. Tissue was sectioned at 5 μm thickness and stained with hematoxylin and eosin, and Masson's trichome under standard procedures. For fluorescent immunostaining, tissue sections were deparaffinized, hydrated and antigens were retrieved by boiling in sodium citrate buffer (10 mM sodium citrate, 0.05% Tween 20 at pH 6.0). Tissues were permeabilized with 0.5% Triton X and blocked with 1% BSA in PBS for 30 min. Tissues were incubated overnight at 4° C. with rat anti-Mouse F4/80 monoclonal antibody (1:50, clone BM8, eBioscience™, Cat #14-4801-82). Then, samples were incubated for 1 hour with goat anti-rat AlexaFluor® 568 (1:500, Invitrogen), followed by mounting with ProLong® Gold Antifade reagent with DAPI. Tissue slides were analyzed by confocal fluorescent microscopy.

Series [2] is described as follows: 3D culture cytocompatibility, Calcein AM / Ethidium homodimer-1 viability and cell morphology. To be noted: mouse; day 1 after encapsulation, 1 wt.% hydrogel; read-out: percentage of viable cells. The series is classed as cell-based. How it is done: (§1) Cytocompatibility and cell viability studies. All cell culture materials, not otherwise specified, were purchased from Gibco, Life Technologies. NIH-3T3 fibroblast cells were cultured in Dulbecco's Modified Eagle Medium (DMEM) supplemented with 10% Fetal Bovine Serum (FBS), 2% L-glutamine (200 mM), 1% sodium pyruvate (100 mM), and 1% pen-strep solution (5000 units/mL of penicillin and 5 mg/mL of streptomycin, Sigma-Aldrich, St. Louis, MO). Cells were maintained at 37° C. and 5% CO2 with humidity and split when reaching 80%-90% confluency by treatment with 0.25% trypsin-EDTA and neutralization with complete media. Cells were centrifuged for 6 min at 1600 rpm, then the cell pellet was dispersed in HBSS, counted and adjusted to the required concentration. 3D cell culture in K2 hydrogel was achieved by mixing a 2% by weight peptide stock solution in 298 mM sucrose with a cell suspension of 2×10^6 cells/mL in HBSS. The final concentration was 1% by weight K2 hydrogel in 149 mM sucrose and 0.5×HBSS with 1×10^6 cells/mL. For O5 peptide, hydrogel was prepared by sonication using only 90% of the required 149 mM sucrose-0.5×HBSS to obtain a 1% by weight concentration, the remaining 10% was added as a cell suspension, and mixed by pipetting into the gel to obtain a final concentration of 1×10^6 cells/mL evenly distributed though the volume of the hydrogel. 70 μL of seeded hydrogels were cultured in a Lab-Tek 16-well glass chamber ([…], Thermo Fisher, Rochester, NY) with 200 μL of medium and fed every 2 days by replacing 100 μL with fresh media. Cell viability was analyzed using a live/dead viability kit (Invitrogen, Thermo Fisher, Carlsbad, CA). At specific time points, the medium was removed, and gels were rinsed with 1×PBS, then 100 μL of staining solution containing 2 μM Calcein AM and 4 μM Ethidium homodimer-1 in DPBS were added. Cells were incubated from 15 to 30 min and imaged using a Nikon A1 Rsi fluorescent confocal microscope (Nikon Instruments, Tokyo, Japan). Three z-stack images of 100 μm deep per sample were taken at 20× using a 488 nm green channel and 561 nm red channel lasers. Images were processed with NIS Element and live/dead cell counting was performed on Imaris 3D/4D Image Processing software (Bitplane, Concord, MA).
(§2) To evaluate the cell morphology, hydrogels were rinsed with PBS and fixed with 10% buffered formalin for 30 min Cells were treated with 0.5% Triton X for 10 min and 100 mM glycine for 10 min, followed by 10% Bovine Serum Albumin (BSA) in HBSS block solution. Then cells were stained for filamentous actin with Alexa Fluor® 488-Phalloidin and for the nuclei with ProLong® Gold Antifade DAPI mounting media. Cell in the hydrogels were analyzed by confocal microscopy using a 40× water objective and processed as described.

The next series concerns NIH-3T3 fibroblasts. The series is described as above. The series is classed as cell-based. The procedure:
as §1, §2

Series [3] is described as follows: Oscillatory rheology of 1 wt.% hydrogel. The series is classed as physicochemical. How it is done: Oscillatory Rheology. Rheological properties of O5 hydrogel were analyzed by oscillatory rheology using a TA Instruments AR-G2 rheometer (TA Instruments, New Castle, DE). Hydrogels were prepared 24 h before the analysis as described above. 150 μL of 1% by weight peptide hydrogels were transferred from a cut syringe onto the rheometer stage equipped with a 12 mm stainless-steel parallel plate set to a 1000 μm gap height. The following program was used to monitor the storage modulus (G′) and loss modulus (G″) under various conditions as has been previously published (Li et al., 2017). Strain sweep analysis was performed using an applied strain of 0.01%-200% at a frequency of 1 rad/s. Frequency sweep analysis was performed under 1% strain at 0.1-100 rad/s. Shear recovery analysis was performed by subjecting the peptide sample to 1% strain for 20 min, then 200% for 1 min, and finally 1% for 20 min, allowing for disruption of the hydrogel and monitoring of G′ and G″ recovery.

A short description of series [4]: Secondary structure estimation from circular dichroism in TFE, least square linear method. The series is classed as physicochemical. To be noted: TFE at 25° C., 1 wt.%. The procedure: Circular Dichroism (CD) spectroscopy. For secondary structure characterization, peptide solutions of 1% by weight (molar concentration is included in Table 2) were prepared in 2,2,2-trifluoroethanol (TFE, Sigma Aldrich, St. Louis, MO). CD spectra acquisition was performed in a CD Jasco J-810 spectropolarimeter (Jasco Inc., Easton, MD) using a 0.01 mm cuvette. Data were collected at room temperature from 180 to 250 nm at a speed of 50 nm/min, with a 0.1 nm data pitch and the spectra were averaged over 5 scans. To study the hydrogelation of O5, 1% by weight peptide solutions were made in 149 mM sucrose solution in 0.5× Hank's Balanced Salt Solution (HBSS, Life Technologies) and analyzed as previously described.
To estimate the secondary structure of O peptide series, data fitting using the least square linear method was performed in MATLAB (Mathworks, Natick, MA). (Hyp)6, O1(SL)6O1 and K2(SL)6K2 were used as basis spectra for polyproline type II, β-sheet and α-helix, respectively (FIG. 7).

The nature of series [5]: Hydrogel formation (inverted-vial test, pH, ionic strength, buffers). It is filed as physicochemical. How it is done:
Hydrogel Formation. Peptide solutions of O5 were prepared at 1% by weight (4.2 mM) in 149 mM sucrose and 0.5×HBSS. This buffer system was chosen to be consistent with prior MDP experiments and find optimum gelling conditions for future in vivo and in vitro work. Peptide solutions were sonicated using a Microson Ultrasonic Cell Disruptor with a 2 mm microprobe. The instrument frequency was 22.5 kHz and a power output up to 10 watts (RMS) was used. Solutions were sonicated at room temperature for 1 or 10 cycles, where each cycle consisted of 10 pulses and 1 min relaxation time between cycles. For the study of hydrogelation of O5, K2 and E2 at different pH values and ionic strength, 1% by weight peptide solutions were prepared in deionized water, PBS, or HBSS. pH was adjusted using HCl or NaOH 0.1 M solutions.

Regarding `CC(=O)N1C[C@H](O)C[C@H]1C(=O)N1C[C@H](O)C[C@H]1C(=O)N1C[C@H](O)C[C@H]1C(=O)N1C[C@H](O)C[C@H]1C(=O)N1C[C@H](O)C[C@H]1C(=O)N[C@@H](CO)C(=O)N[C@@H](CC(C)C)C(=O)N[C@@H](CO)C(=O)N[C@@H](CC(C)C)C(=O)N[C@@H](CO)C(=O)N[C@@H](CC(C)C)C(=O)N[C@@H](CO)C(=O)N[C@@H](CC(C)C)C(=O)N[C@@H](CO)C(=O)N[C@@H](CC(C)C)C(=O)N[C@@H](CO)C(=O)N[C@@H](CC(C)C)C(=O)N1C[C@H](O)C[C@H]1C(=O)N1C[C@H](O)C[C@H]1C(=O)N1C[C@H](O)C[C@H]1C(=O)N1C[C@H](O)C[C@H]1C(=O)N1C[C@H](O)C[C@H]1C(N)=O` [Peptide O5, Ac-OOOOOSLSLSLSLSLSLOOOOO-CONH2] (Ac-[Hyp][Hyp][Hyp][Hyp][Hyp]SLSLSLSLSLSL[Hyp][Hyp][Hyp][Hyp][Hyp]-NH2), the inflammatory response entry in series [1] (compared to K2 hydrogel) was “weaker inflammatory response”. Besides, the implant degradation entry in series [1] (day 14) is “almost completely degraded”. Moreover, in series [1] (day 14, Masson's trichrome), the “collagen deposition / remodeling” value is “natural collagen is observed”. Besides, the fibrous encapsulation result in series [1] (subcutaneous implant, in contrast with PEG) was “not fibrously encapsulated”. Also, in series [2], the viability at 24 h, 1 % by weight was about 70%. Besides, the “cell spreading and adhesion to the material” value in the series on NIH-3T3 fibroblasts (5 days encapsulated, actin staining) was “do not spread and adhere to the material”. In addition, the “cell recovery after extraction from the hydrogel” value with NIH-3T3 fibroblasts (after 5 days of culture) is “recover, grow, and proliferate”. For the same compound, the “percentage of viable cells” value in the series on NIH-3T3 fibroblasts (day 3 compared with day 1) is listed as “relatively unchanged”. In the series with NIH-3T3 fibroblasts (days 1 to 5, 1 wt.% hydrogel), the “cytotoxicity / viability over the culture” value is “good initial viability, which remains constant throughout the experiment”. Besides, the “cell proliferation / viable cell density in the gel” value with NIH-3T3 fibroblasts (up to day 5) is “not observed to proliferate”. In series [3], the “loss modulus (G″)” value is given as 1.7±0.5 Pa and the “storage modulus (G′)” value turned out to be 23.3±8.7 Pa. For the same compound, in series [4], the “% PPII” value is 50%, the “% α-helix” value is 40.5%, the “% β-sheet” value was 9.5% and the “Predominant Structure” value is given as “PPII”. Moreover, the “state of the peptide at 10 mg/mL” value in series [5] (10 mg/mL) is recorded as “forms a hydrogel”. Also, the “hydrogelation in cell culture media” value in series [5] (1% by weight in 149 mM sucrose and 0.5×HBSS, ultrasonication) is on record as “forms a self-supportive hydrogel”. Also, in series [5] (1% by weight, pH adjusted with HCl or NaOH, inverted-vial test / CD), the “hydrogel formation at acidic, neutral and basic pH” value is “remains a hydrogel at acidic, neutral and basic pH; also recorded: remains a hydrogel at all pH”. Moreover, in series [5] (also in deionized water, PBS and HBSS), the “pH range over which peptide remains a hydrogel” value was 3-11.
